Laboratory results from ChEMBL document CHEMBL1154350 (Bioorg Med Chem Lett, 2009).
Active and inactive are the calls of the source. The rule behind the calls is not given here.

Columns and labels:
[1] = biological target: T1, Succinyl-diaminopimelate desuccinylase (Haemophilus influenzae (strain ATCC 51907 / DSM 11121 / KW20 / Rd), UniProt P44514); experiment: Inhibition of Haemophilus influenzae recombinant DapE
T1 sequence (P44514 whole entry): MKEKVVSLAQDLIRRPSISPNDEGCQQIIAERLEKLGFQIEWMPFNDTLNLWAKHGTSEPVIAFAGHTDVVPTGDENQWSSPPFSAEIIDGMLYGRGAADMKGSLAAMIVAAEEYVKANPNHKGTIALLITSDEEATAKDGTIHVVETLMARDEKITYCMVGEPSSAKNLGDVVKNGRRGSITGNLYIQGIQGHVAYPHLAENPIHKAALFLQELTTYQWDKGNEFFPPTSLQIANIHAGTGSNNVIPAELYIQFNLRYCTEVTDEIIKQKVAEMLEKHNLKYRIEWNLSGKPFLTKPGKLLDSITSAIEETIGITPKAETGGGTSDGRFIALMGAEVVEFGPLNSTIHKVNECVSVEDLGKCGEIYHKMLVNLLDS

[2] = biological target: T1, Succinyl-diaminopimelate desuccinylase; experiment: Inhibition of Haemophilus influenzae recombinant DapE by competitive binding assay
[3] = test system: Escherichia coli; experiment: Antibacterial activity against Escherichia coli at 1 mg by antibiotic plate assay; assay type: functional, organism-based
[4] = test system: Escherichia coli; experiment: Antibacterial activity against Escherichia coli at 5 mg by antibiotic plate assay; assay type: functional, organism-based
[5] = test system: Escherichia coli; experiment: Antibacterial activity against Escherichia coli at 20 mg by antibiotic plate assay; assay type: functional, organism-based
[6] = biological target: T1, Succinyl-diaminopimelate desuccinylase; experiment: Inhibition of Haemophilus influenzae recombinant DapE by non-competitive binding assay

## CC(C)(S)[C@H](N)C(=O)O
[1]
  IC50: 13.7 µM
[2]
  Ki: 4.6 µM

## O=C(O)c1cccc(S)c1
[1]
  IC50: 34 µM

## CC(=O)NO [ACETOHYDROXAMIC ACID]
[1]
  IC50: > 1000 µM

## C[C@H](CS)C(=O)N1CCC[C@H]1C(=O)O
[3]
  Activity: Active
[4]
  Activity: Active
[5]
  Activity: Active

## O=C(NO)OCc1ccccc1
[1]
  IC50: > 1000 µM

## O=C(O)c1cccc(B(O)O)c1
[1]
  IC50: > 10000 µM

## OB(O)c1cccs1
[1]
  IC50: 92 µM
[6]
  Ki: 67 µM

## O=C(O)CCP(=O)(O)O
[1]
  IC50: 1620 µM
  Ki: 800 µM

## O=C(O)CCCS
[1]
  IC50: 43 µM

## NC(=S)Nc1ccccc1 [PHENYLTHIOUREA]
[1]
  IC50: > 100 µM

## CCCCB(O)O [BUTYL BORONIC ACID]
[1]
  IC50: ~10000 µM

## CCOC(=O)[C@H](CCc1ccccc1)N[C@@H](C)C(=O)N1CCC[C@H]1C(=O)O
[1]
  IC50: > 1000 µM

## CC(C)(S)[C@@H](N)C(=O)O [PENICILLAMINE]
[1]
  IC50: 50 µM

## O=C(O)c1ccc(B(O)O)cc1
[1]
  IC50: > 10000 µM
